This is an account of results in patent US20100172925A1, “HLA-A2-RESTRICTED T-CELL EPITOPES OF THE RESPIRATORY SYNCYTIAL VIRUS FUSION PROTEIN AS PEPTIDE-BASED VACCINES” (priority 2009, published 2010).

Test [1] relates to spleen lymphocytes of peptide-immunized HLA-Tg B6 mice. The test is described as follows: IFN-γ ELISPOT, peptide-restimulated splenocytes of peptide-immunized mice. The class given is in vivo, mouse. The procedure: HLA-A2.1 transgenic C57BL/6 mice were anesthetized with isoflurane and primed with 1×10^7 pfu/50 μL of rAd-F0, rAd-LacZ or 1×10^4 live RSV B1 via the intranasal (i.n.) route. Twenty days later, animals were boosted i.n. with the same dose of respective immunogens. For peptide-based vaccination, transgenic mice were immunized subcutaneously (s.c.) with 50 μg of individual synthetic peptides emulsified in 100 μL of incomplete Freund's adjuvant (IFA) and then boosted s.c. with the same dose of respective peptides mixed with IFA one week later. Mice were sacrificed 7 days after the boost. The splenocytes were isolated and stimulated with synthetic CD8 epitope peptides in the presence of 5-(6)-carboxyfluorescein diacetate succinimidyl ester (CFSE) for 4 and 8 days. Proliferated CD4^+ or CD8^+ T cell counts were analyzed by flow cytometry (BD FACSCalibur) using PE-labeled specific antibody against CD4 or CD8, respectively. […]
Following 2 hr of incubation at room temperature, the plate was washed with 200 μL of wash buffer. […] The plates were washed with water, air-dried overnight, and the spots per culture were scored using the immunospot counting reader (C.T.L. IMMUNOSPOT, […] TECHNOLOGY LTD). Results were expressed as the number of cytokine-secreting cells per 5×10^5 splenocytes seeded at culture initiation. […]

Another test deals with peptide-loaded T2 cells. The test can be described thus: Cytotoxicity (CTL) assay, CFSE/7-AAD, splenocytes of peptide-immunized mice against peptide-loaded T2 cells. The note with it: E:T ratio of 100:1; IFA vehicle background 6.5%. The class given is in vivo, mouse. The procedure: A non-radioactive assay of cell-mediated cytotoxicity was performed using green fluorescent probes 5-(6)-carboxyfluorescein diacetate succinimidyl ester (CFSE) to label target cells in combination with 7-amino-actinomycin D (7AAD), a red fluorescent probe to label dead effector and dead target cells. The assay was used to assess the presence of the RSV F protein-specific CTLs in the spleens or lungs of the immunized animals [Russell et al. (2002) “Lymphocyte-mediated cytotoxicity” Annu Rev Immunol 20:323-70]. The assay protocol was in accordance with the manufacturer's instructions (Cayman Chemical, Michigan, USA). […]
The CFSE-labeled target cells were resuspended in the culture medium and incubated at 37° C. of CO2 incubator for 30 minutes. […] The CFSE positive cells were measured in the FL1 channel and 7-AAD stained cells were measured in the FL3 channel. The percentage of CFSE/7-AAD double positive target cells (i.e., T2 cell death) was analyzed.
It has been reported that in primary RSV infection of BALB/c mice, CTLs generated against the F, matrix 2 (M2) and N viral proteins play a protective role in virus clearance. […] A mean background percentage of the killed target cells co-cultured with the control splenocytes isolated from the mouse previously immunized with the vehicle IFA was scored (6.5% at the E:T ratio of 100:1). […]

In the case of “KVLDLKNYI (F214-222) [compound 13, 9-mer synthetic peptide from the F protein of RSV-B1 strain]”, the “IFN-γ level (ELISPOT, in words)” value in test [1] is “background level of IFN-γ”. Besides, in the test with peptide-loaded T2 cells, the “percentage of killed target cells (CFSE and 7-AAD double positive T2 cells), CTL response” value was 15.4%.
